Experimental data reported in patent US10561703B2, “Method of modulating sex hormone levels using a sex hormone secretion modulator” (GEMVAX & KAEL CO., LTD., priority 2013, dated 2020).

System: WPMY-1
Test: Cell proliferation (CCK-8) in prostate mesenchymal cell line
Format: cell-based
Protocol: When testosterone is injected into the body, testosterone becomes dihydrotestosterone (DHT) due to 5α-reductase, which stimulates the proliferation of prostate cells and induces benign prostatatic hyperplasia (BPH). Based on these facts, a PEP-1 (GV1001) injection experiment was performed for the inhibition of proliferation of prostatic cells in the following manner: The cell lines were mesenchymal cell lines (WPMY-1) and epithelial cell lines (RWPE-1) of prostates obtained from BPH animal models. […] Observation of changes in the proliferation was performed by suctioning a culture medium, adding 10 μL of CCK-8 solution to each well, and measuring an optical density at 450 nm for 1 hour to about 4 hours.

## EARPALLTSRLRFIPK (listed as Homo sapiens) [PEP-1, hormone secretion modulator / GnRH analog]
WPMY-1, 100 and 200 μM GV1001, no DHT
  Cell proliferation (optical density at 450 nm) versus untreated cells: did not show a substantial difference in optical densities
WPMY-1, 100 and 200 μM GV1001 with 25 nM DHT
  Inhibition of DHT-induced cell proliferation: substantial inhibition effects on proliferation
